Assay results reported in US11572590B2, “Methods for evaluating tumor cell spheroids using 3D microfluidic cell culture device” (Dana-Farber Cancer Institute, Inc., priority 2017, dated 2023).
Read-outs that look alike come from different tables or passages of the source.

Key:
Test in all cases: SelectScreen Kinase Profiling, single point inhibition and IC50 for off-target kinases
Assay type in all cases: biochemical
off-target kinases [1] = target: off-target kinases (Homo sapiens, UniProt Q9NYY3); details: PLK2, ATP Km app, ZLYTE
off-target kinases [2] = target: off-target kinases (Homo sapiens, UniProt P31751); details: AKT2 (PKB beta), ZLYTE, ATP Km app
off-target kinases [3] = target: T1, off-target kinases (Homo sapiens, UniProt P53778); details: MAPK12 (p38 gamma), ZLYTE, ATP Km app
T1 sequence (P53778 1-367): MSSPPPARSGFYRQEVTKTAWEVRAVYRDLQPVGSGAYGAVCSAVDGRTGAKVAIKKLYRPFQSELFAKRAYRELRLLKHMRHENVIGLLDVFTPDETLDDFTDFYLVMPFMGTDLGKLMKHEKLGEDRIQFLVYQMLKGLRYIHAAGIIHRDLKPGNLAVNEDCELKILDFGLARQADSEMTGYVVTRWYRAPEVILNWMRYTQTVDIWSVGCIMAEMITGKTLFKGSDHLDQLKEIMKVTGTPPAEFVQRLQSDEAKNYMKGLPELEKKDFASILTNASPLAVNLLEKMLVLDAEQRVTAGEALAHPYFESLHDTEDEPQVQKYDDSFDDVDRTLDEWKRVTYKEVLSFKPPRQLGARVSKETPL

off-target kinases [4] = target: T2, off-target kinases (Homo sapiens, UniProt P42681); details: TXK, ZLYTE, ATP Km app
T2 sequence (P42681 1-527): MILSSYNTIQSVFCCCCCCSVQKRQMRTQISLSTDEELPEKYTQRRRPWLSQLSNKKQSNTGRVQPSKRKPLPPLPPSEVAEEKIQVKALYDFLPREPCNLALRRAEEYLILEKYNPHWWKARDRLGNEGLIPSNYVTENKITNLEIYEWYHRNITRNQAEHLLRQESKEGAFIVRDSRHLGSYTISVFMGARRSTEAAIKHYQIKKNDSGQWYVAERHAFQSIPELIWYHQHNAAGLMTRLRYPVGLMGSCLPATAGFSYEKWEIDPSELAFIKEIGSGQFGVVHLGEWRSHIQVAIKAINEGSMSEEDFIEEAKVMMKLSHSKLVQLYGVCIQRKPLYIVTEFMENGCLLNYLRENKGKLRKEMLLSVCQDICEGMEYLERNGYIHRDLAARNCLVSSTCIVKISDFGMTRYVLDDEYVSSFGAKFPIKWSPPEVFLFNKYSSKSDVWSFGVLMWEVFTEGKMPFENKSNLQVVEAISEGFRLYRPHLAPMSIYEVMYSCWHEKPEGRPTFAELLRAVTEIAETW

off-target kinases [5] = target: off-target kinases (Homo sapiens, UniProt P00519, M351T); details: ABL1 M351T, LanthaScreen Binding
off-target kinases [6] = target: T3, off-target kinases (Homo sapiens, UniProt Q9NR20)
T3 sequence (Q9NR20 1-520): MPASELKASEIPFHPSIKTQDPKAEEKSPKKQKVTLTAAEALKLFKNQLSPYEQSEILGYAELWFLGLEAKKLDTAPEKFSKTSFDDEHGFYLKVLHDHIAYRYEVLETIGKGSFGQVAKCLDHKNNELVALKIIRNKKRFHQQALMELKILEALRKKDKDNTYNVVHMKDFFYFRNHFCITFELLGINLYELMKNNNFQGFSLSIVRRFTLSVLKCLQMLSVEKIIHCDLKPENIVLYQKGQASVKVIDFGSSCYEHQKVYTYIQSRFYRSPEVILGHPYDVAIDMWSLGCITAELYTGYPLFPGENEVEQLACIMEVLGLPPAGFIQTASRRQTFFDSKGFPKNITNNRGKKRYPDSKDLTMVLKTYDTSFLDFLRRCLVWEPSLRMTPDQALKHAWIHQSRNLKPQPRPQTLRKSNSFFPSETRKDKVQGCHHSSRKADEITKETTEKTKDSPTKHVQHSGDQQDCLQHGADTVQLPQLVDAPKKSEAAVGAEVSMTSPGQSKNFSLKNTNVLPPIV

Chain of off-target kinases (Homo sapiens, UniProt P31751) (P31751 whole entry): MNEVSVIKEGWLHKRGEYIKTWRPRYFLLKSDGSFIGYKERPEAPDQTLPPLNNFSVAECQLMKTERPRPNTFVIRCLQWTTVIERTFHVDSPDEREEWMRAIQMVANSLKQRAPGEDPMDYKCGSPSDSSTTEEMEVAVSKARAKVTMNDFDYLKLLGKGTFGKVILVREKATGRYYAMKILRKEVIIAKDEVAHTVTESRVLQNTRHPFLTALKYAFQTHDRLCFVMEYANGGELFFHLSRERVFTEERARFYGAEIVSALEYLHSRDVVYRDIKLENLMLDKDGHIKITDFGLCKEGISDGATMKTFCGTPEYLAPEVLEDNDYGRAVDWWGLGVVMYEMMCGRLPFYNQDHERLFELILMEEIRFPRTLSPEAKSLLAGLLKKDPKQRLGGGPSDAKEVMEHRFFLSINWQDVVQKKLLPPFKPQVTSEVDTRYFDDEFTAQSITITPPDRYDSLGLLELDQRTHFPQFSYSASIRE
Chain of off-target kinases (Homo sapiens, UniProt Q9NYY3) (Q9NYY3 whole entry): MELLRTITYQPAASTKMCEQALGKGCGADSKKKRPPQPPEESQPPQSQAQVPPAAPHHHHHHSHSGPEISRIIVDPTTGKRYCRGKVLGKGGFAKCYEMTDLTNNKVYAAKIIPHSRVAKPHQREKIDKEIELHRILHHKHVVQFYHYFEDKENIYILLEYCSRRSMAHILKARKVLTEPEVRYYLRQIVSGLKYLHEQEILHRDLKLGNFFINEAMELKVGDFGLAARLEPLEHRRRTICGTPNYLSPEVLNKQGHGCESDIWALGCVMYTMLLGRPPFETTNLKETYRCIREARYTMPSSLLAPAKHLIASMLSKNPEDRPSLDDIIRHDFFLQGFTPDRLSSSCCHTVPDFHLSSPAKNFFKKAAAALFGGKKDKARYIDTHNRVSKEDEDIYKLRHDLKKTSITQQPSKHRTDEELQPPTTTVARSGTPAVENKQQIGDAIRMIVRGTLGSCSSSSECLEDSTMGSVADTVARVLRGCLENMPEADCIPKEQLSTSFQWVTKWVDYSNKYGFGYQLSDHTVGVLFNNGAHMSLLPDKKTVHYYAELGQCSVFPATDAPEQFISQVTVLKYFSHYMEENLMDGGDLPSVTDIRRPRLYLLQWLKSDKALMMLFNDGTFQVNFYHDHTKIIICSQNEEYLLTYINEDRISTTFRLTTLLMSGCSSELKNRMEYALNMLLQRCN

N#Cc1cc(-c2ncnc(Nc3ccc(N4CCN(C5COC5)CC4)cc3)n2)ccc1OC1CCOCC1 [Compound 1, 5-(4-((4-(4-(oxetan-3-yl)piperazin-1-yl)phenyl)amino)-1,3,5-triazin-2-yl)-2-((tetrahydro-2H-pyran-4-yl)oxy)benzonitrile]
inhibition (off-target kinases [1]; read-out: % Inhibition 1): 60% | inhibition (off-target kinases [1]; read-out: % Inhibition 2): 64% | inhibition (off-target kinases [1]; read-out: % Inhibition Avg): 62% | inhibition (off-target kinases [2]; read-out: % Inhibition 1): 3% | inhibition (off-target kinases [2]; read-out: % Inhibition 2): 2% | inhibition (off-target kinases [2]; read-out: % Inhibition Avg): 3% | inhibition (off-target kinases [3]; read-out: % Inhibition 1): 4% | inhibition (off-target kinases [3]; read-out: % Inhibition 2): 3% | inhibition (off-target kinases [3]; read-out: % Inhibition Avg): 3% | inhibition (off-target kinases [4]; read-out: % Inhibition 1): 27% | inhibition (off-target kinases [4]; read-out: % Inhibition 2): 36% | inhibition (off-target kinases [4]; read-out: % Inhibition Avg): 31% | inhibition (off-target kinases [5]; read-out: % Inhibition 1): 65% | inhibition (off-target kinases [5]; read-out: % Inhibition 2): 69% | inhibition (off-target kinases [5]; read-out: % Inhibition Avg): 67% | inhibition (off-target kinases [6]; read-out: % Inhibition 1): -2% | inhibition (off-target kinases [6]; read-out: % Inhibition 2): 0% | inhibition (off-target kinases [6]; read-out: % Inhibition Avg): -1%
